Results: US20150210984A1, “METHOD FOR R[…] IN VITRO” (priority 2011, published 2015)

System: HCV Genotype 3
Assay: Patient-derived monocytes fused to hepatocytes, HCV RNA by qPCR
Type: cell-based
Conditions: fused cells from patients with genotype 3 HCV; 3 to 7 days with telaprevir; FIG. 8
Protocol: Patient derived monocytes from patients with genotype 1 and genotype 3 HCV were taken and incubated for a variety of different times (ranging from 3 to 7 days) with telaprevir at concentrations known to inhibit HCV RNA. The amount of HCV RNA was assessed using a standard qPCR technique and is expressed as the raw Ct value from the Corbett Rotorgene.
CD14+ monocytes were positively selected from total PBMCs by magnetic cell separation, according to the manufacturer's instructions. The CD14+ cells obtained were counted and pelleted with an equal number of HuH 7.5 cells. The cell pellet was resuspended in pre-warmed polyethylene glycol 1500 (PEG 1500, Roche) over 1 minute then incubated at 37° C. for 2 minutes. […]
RNA was extracted from fused cells immediately after fusion and following a 5 day incubation using TRIzol reagent (Invitrogen). Total RNA obtained was quantified using the RiboGreen assay (Invitrogen). HCV RNA was measured by reverse transcription-quantitative PCR (RT-qPCR) using the Quantitect viral nucleic acid detection kit (Qiagen) in 20 μL volumes with a TaqMan primer and probe for HCV detection (Applied Biosystems). 10-fold serial dilutions of PCR product corresponding to a 319 nucleotide segment between the 5′untranslated region and E1 region of the HCV genome were included as a quantitative standard. […]

With `CCC[C@H](NC(=O)[C@@H]1[C@H]2CCC[C@H]2CN1C(=O)[C@@H](NC(=O)[C@@H](NC(=O)c1cnccn1)C1CCCCC1)C(C)(C)C)C(=O)C(=O)NC1CC1` [telaprevir] the “replication of HCV (HCV RNA)” value was “not inhibited”.
